Reference: US10562939B2, “Method for significantly increasing lentiviral production” (priority 2016, dated 2020)

Columns and labels:
[1] = molecular target: T1, interaction between HIV-1 MA and arginyl-tRNA synthetase (RRS) (Homo sapiens, UniProt P54136); assay: Co-immunoprecipitation of RRS with HIV-1 MA (control); format: binding
T1 construct: endogenous in cells; host or cells: 293A-MA-FH cells (RRS endogenous; MA-flag stably expressed)
T1 sequence (P54136 1-660): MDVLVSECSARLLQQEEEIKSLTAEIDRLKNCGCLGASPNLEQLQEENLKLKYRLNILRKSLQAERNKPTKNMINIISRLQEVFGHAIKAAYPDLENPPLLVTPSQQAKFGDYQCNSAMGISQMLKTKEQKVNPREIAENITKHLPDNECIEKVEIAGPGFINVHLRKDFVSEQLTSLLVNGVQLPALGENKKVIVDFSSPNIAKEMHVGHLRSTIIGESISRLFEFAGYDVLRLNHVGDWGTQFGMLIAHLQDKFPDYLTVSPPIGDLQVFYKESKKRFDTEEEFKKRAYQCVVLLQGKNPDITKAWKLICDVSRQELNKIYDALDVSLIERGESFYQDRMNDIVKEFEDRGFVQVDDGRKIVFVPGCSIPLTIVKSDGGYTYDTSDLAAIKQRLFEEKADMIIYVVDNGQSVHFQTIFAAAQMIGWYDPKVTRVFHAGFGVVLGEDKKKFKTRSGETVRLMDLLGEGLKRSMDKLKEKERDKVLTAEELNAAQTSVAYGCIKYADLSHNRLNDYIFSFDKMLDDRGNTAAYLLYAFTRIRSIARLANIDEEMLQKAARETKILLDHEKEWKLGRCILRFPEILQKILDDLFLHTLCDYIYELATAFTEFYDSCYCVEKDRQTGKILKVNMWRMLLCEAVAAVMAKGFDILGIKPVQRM
Procedure: As a control, the interaction between MA and another MA-interacting protein, arginyl-tRNA synthetase (RRS), a subunit of the aminoacyl-tRNA synthetase complex, was also evaluated. The coimmunoprecipitation of RRS and HIV-1 MA was not affected by addition of myristic acid (FIG. 1D).

[2] = system: HIV-1 virion production in 293A cells; assay: Virus-like particle (VLP) detection, 293A cells transfected with pNL4.3luc, CA Western blot; settings: 20-40 micromolar, 48 hours, FIG. 4C
human HO-2 = molecular target: T2, human HO-2 (Homo sapiens, UniProt P30519); assay: Fatty acid binding to HO-2 (crystal structure); settings: FIG. 2E
T2 construct: The HO-2 gene fragment encoding amino acid residues 30-242 was cloned into a pET28a vector; made in house; host or cells: Escherichia coli BL21 (DE3) Star
T2 sequence (P30519 30-242): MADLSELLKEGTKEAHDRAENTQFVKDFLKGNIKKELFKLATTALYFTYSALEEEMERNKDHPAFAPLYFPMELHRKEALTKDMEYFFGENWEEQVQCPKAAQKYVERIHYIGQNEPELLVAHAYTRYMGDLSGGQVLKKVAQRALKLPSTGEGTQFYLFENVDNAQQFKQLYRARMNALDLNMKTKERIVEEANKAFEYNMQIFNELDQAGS
Procedure: To make the myristate complex, sodium myristate was dissolved in water at 50° C., and mixed with 20 mg/ml protein solution and incubated at 37° C. water bath for 30 min. The complex solution was then used to set up crystallization by mixing with (0.1 M Bis-Tris, (pH 5.5), 28% (w/v) polyethylene glycol 550 monomethyl ether, and 5 mM MgCl2). Crystals were directly flash-frozen in liquid nitrogen.
The laurate complex crystals were obtained by soaking apo crystals in well solution with 5 mM sodium laurate overnight and transferred to well solution with 35% (w/v) of precipitant before flash-frozen in liquid nitrogen. The crystals belong to space group P212121 and there are four protein molecules in the asymmetric unit.
X-ray diffraction data sets were collected at beamline 24-ID-E of the Advanced Photon Source (APS). The data were processed with the HKL package (Otwinowski and Minor, 1997). The structures were solved by molecular replacement using entry 2Q32 from the Protein Data Bank as the model. The myristate and laurate were manually added with Coot (Emsley and Cowtan, 2004) and refined with Phenix (Adams et al., 2002).
The crystal structure was also determined at 2.1 Å resolution of human HO-2 in complex with the C12 fatty acid laurate (FIG. 2E, Table 1B). The crystal was isomorphous to that of the myristate complex. […]

Q: How did the “coimmunoprecipitation of RRS and HIV-1 MA” value ([1]; myristic acid added to cell lysates, FIG. 1D) turn out when `CCCCCCCCCCCCCC(=O)O` [myristic acid] was run?
A: not affected

Q: `C=CC1=C(C)C2=Cc3c(C=C)c(C)c4[n]3[Sn]([Cl])([Cl])[n]3c(c(C)c(CCC(=O)O)c3=CC3=NC(=C4)C(C)=C3CCC(=O)O)=CC1=N2` [SnPPIX, tin protoporphyrin IX dichloride] was tested. Which “interaction between HIV-1 MA and RRS” value ([1]; increasing concentrations of SnPPIX, FIG. 4B) did it give?
A: no effect

Q: And the “virus yield (CA levels in virions)” value [2]?
A: dramatic increases in virus yield

Q: For `CCCCCCCCCCCC(=O)O` [laurate], which “binding to HO-2” value (human HO-2) is on record?
A: could indeed bind
